Assay results from US20090274676A1, “COMBINATION OF DEHYDROEPIANDROSTERONE OR DEHYDROEPIANDROSTERONE-SULFATE WITH A PDE-4 INHIBITOR FOR TREATMENT OF ASTHMA OR CHRONIC OBSTRUCTIVE PULMONARY DISEASE” (priority 2003, published 2009).
“And” between values parts separate entries of the source, which are not always exact repeats. Equal entries are not always repeated. Marks after values point to notes of the source that are not given here.

Experiment: Respirable dose studies, Andersen cascade impactor
Format: physicochemical
Conditions: 90 L/min
Protocol: The respirable dose (respirable fraction) studies were performed using a standard sampler cascade impactor (Andersen), consisting of an inlet cone (an impactor pre-separator was substituted here), 9 stages, 8 collection plates, and a backup filter within 8 aluminum stages held together by 3 spring clamps and gasket O-ring seals, where each impactor stage contains multiple precision drilled orifices. When air is drawn through the sampler, multiple jets of air in each stage direct any airborne particles toward the surface of the collection plate for that stage. The size of the jets is constant for each stage, but is smaller in each succeeding stage. Whether a particle is impacted on any given stage depends upon its aerodynamic diameter. The range of particle sizes collected on each stage depends upon on the jet velocity of the stage, and the cut-off point of the previous stage. Any particle not collected on the first stage follows the air stream around the edge of the plate to the next stage, where it is either impacted or passed on to the succeeding stage, and so on, until the velocity of the jet is sufficient for impaction. To prevent particle bounce during the cascade impactor test, the individual impactor plates were coated with a hexane-grease (high vacuum) solution (100:1 ratio). As noted above, the particle size cut-off points on the impactor plates changed at different airflow rates. […] The set-up recommended by the United States Pharmacopeia for testing dry powder inhalers consists of a mouthpiece adapter (silicone in this case) attached to a glass throat (modified 50 ml round-bottom flask) and a glass distal pharynx (induction port) leading top the pre-separator and Andersen sampler. The pre-separator sample includes washings from the mouthpiece adaptor, glass throat, distal glass pharynx and pre-separator. 5 ml acetonitrile:water (1:1 ratio) solvent was placed in the pre-separator before performing the cascade impactor experiment, that were performed in duplicate with 3 different dry powder inhaler devices and at 3 airflow rates, 30, 60 and 90 L/min. The drug collected on the cascade impactor plates were assayed by the HPLC, and a drug mass balance was performed for each Diskhaler and multi-dose cascade impactor experiment consisting of determining the amount of drug left in the blister, the amount of drug remaining in the device (Diskhaler only), the non-respirable amount of the dose retained on the silicone rubber mouth piece adaptor, glass throat, glass distal pharynx and pre-separator, all combined into one sample, and the respirable dose, i.e. Stage 2 through filter impactor plates for airflow rates of 30 and 60 L/min and Stages 1 through filter impactor plates for 90 L/min experiments.
The cascade impactor experiments were conducted as described in Example 3. Four cascade impactor experiments were done, three with a IDL multi-dose device and one with a Diskhaler, all at 90 L/min. […] However, the % respirable dose was still low. This was likely the result of moisture absorption of the anhydrous form.

[1] = Multi-dose, oven dried drug for 80 minutes
[2] = Multi-dose, oven dried drug for 20 hours

Question: Which “Respirable dose of spray-dried compared to micronized anhydrous DHEA-S” value does the source give for `C[C@]12CC[C@H](OS(=O)(=O)[O-])CC1=CC[C@@H]1[C@@H]2CC[C@]2(C)C(=O)CC[C@@H]12.[Na+]` [Anhydrous DHEA-S] here?
Answer: two-fold increase

Question: What about the “Blister (%)” value [1] of the same molecule?
Answer: 2.8%

Question: And the “Preseparator (%)” value [1]?
Answer: 78.7%

Question: What about the “Respirable Dose (%)” value [1] of the same molecule?
Answer: 4.6%

Question: And the “Device (%)” value (Multi-dose, oven dried drug for 80 minutes, obtained by difference)?
Answer: 13.9*^a %

Question: What about the “Blister (%)” value [2] of the same molecule?
Answer: 5.0%

Question: What about the “Preseparator (%)” value [2] of the same molecule?
Answer: 55.9%

Question: And the “Respirable Dose (%)” value [2]?
Answer: 1.2%

Question: And the “Device (%)” value (Multi-dose, oven dried drug for 20 hours, obtained by difference)?
Answer: 37.9*^a %

Question: What about the “Blister (%)” value (jet-milled drug, Diskhaler) of the same molecule?
Answer: 6.6% and 10.1%

Question: And the “Device (%)” value (jet-milled drug, Diskhaler)?
Answer: 22.1% and 13.3%

Question: And the “Preseparator (%)” value (jet-milled drug, Diskhaler)?
Answer: 72.7% and 60.2%

Question: And the “Respirable Dose (%)” value (jet-milled drug, Diskhaler)?
Answer: 2.9% and 2.4%

Question: What about the “Blister (%)” value (jet-milled drug, Multi-dose) of the same molecule?
Answer: 3.8% and 3.9%

Question: And the “Preseparator (%)” value (jet-milled drug, Multi-dose)?
Answer: 73.3% and 65.8%

Question: And the “Respirable Dose (%)” value (jet-milled drug, Multi-dose)?
Answer: 3.6% and 3.8%

Question: What about the “Device (%)” value (jet-milled drug, Multi-dose, obtained by difference) of the same molecule?
Answer: 19.3*^a % and 26.5*^a %

Question: And the “Blisters (%)” value (spray-dried drug, Diskhaler)?
Answer: 29.0%

Question: What about the “Device (%)” value (spray-dried drug, Diskhaler) of the same molecule?
Answer: 11.2%

Question: And the “Preseparator (%)” value (spray-dried drug, Diskhaler)?
Answer: 56.8%

Question: What about the “Respirable Dose (%)” value (spray-dried drug, Diskhaler) of the same molecule?
Answer: 5.6%
